target: T1, POLγA:A467T (Homo sapiens, UniProt P54098, A467T); test: DNA polymerization assay, POLγA:A467T mutant; type: biochemical; conditions: stimulation of polymerase activity, primed M13mp18 ssDNA, 37° C. 2 hours; read-out: A467T AC50
T1 sequence (P54098 1-1239 A467T): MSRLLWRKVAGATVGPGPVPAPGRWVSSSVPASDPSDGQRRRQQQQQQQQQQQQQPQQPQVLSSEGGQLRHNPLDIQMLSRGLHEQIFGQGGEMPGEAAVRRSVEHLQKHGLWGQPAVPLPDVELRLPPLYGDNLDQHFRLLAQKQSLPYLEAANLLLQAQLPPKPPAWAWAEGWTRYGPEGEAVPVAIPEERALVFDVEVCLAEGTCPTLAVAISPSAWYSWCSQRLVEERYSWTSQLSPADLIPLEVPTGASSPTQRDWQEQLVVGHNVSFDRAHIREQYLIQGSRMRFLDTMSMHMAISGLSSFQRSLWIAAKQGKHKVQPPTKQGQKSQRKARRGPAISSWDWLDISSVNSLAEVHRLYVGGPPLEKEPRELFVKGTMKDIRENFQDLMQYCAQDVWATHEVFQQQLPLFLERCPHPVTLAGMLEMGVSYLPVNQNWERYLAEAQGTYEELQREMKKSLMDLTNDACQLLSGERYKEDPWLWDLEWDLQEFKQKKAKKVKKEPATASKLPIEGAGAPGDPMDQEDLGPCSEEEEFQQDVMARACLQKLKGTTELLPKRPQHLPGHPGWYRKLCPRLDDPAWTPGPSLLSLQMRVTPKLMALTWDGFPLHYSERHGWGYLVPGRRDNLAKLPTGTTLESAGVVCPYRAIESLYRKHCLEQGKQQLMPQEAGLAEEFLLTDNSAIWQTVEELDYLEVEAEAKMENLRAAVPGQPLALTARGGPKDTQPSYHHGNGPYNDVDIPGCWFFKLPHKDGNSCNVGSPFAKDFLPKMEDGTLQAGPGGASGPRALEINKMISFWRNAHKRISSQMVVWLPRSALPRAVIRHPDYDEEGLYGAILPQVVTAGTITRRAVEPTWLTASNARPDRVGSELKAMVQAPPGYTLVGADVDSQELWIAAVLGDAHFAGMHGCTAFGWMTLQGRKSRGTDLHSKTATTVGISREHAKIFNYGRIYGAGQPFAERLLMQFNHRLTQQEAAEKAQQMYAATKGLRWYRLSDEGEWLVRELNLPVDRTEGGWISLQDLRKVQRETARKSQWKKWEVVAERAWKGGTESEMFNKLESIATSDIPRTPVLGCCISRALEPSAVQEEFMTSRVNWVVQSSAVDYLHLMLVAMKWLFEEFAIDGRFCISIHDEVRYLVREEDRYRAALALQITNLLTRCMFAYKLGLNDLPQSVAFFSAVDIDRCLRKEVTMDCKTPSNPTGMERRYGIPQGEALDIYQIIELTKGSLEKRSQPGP
T1 sequence (Q9UHN1 1-485 partner): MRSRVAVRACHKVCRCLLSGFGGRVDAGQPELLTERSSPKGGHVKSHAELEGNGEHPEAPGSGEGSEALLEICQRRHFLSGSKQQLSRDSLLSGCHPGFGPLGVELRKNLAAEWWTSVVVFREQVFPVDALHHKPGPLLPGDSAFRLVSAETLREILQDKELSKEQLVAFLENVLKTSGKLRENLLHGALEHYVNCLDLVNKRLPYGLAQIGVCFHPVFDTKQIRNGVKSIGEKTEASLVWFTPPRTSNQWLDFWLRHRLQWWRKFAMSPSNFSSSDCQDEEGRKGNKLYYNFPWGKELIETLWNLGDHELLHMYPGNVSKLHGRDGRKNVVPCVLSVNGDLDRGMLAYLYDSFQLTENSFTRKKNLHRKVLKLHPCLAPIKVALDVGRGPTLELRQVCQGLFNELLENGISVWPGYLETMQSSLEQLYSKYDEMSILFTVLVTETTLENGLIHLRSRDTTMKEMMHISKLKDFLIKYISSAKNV

Row | AC50 [µM] | Compound
1 | > 100 | Cc1cc(S(=O)(=O)N[C@H]2CCCN(c3ccccc3)C2)c(C)cc1Cl [Example 161, (S)-4-chloro-2,5-dimethyl-N-(1-phenylpiperidin-3-yl)benzenesulfonamide]
2 | > 100 | COCCNC(=O)c1cccc(NS(=O)(=O)c2cc(C)c(Cl)cc2C)c1 [Example 47, 3-((4-chloro-2,5-dimethylphenyl)sulfonamido)-N-(2-methoxyethyl)benzamide]
3 | 91 | Cc1cc(S(=O)(=O)Nc2cccc(C(=O)N3CCCC34CC4)c2)c(C)cc1Cl [Example 162, N-(3-(4-azaspiro[2.4]heptane-4-carbonyl)phenyl)-4-chloro-2,5-dimethylbenzenesulfonamide]
4 | > 100 | Cc1ccc(C)c(S(=O)(=O)Nc2cccc(C(=O)N3CCSCC3)c2)c1 [Example 24, 2,5-dimethyl-N-(3-(thiomorpholine-4-carbonyl)phenyl)benzenesulfonamide]
5 | 17 | Cc1cc(S(=O)(=O)Nc2ccc3ccn(C(C)C)c3c2)c(C)cc1Cl [Example 69, 4-chloro-N-(1-isopropyl-1H-indol-6-yl)-2,5-dimethylbenzenesulfonamide]
6 | > 10 | Cc1cc(S(=O)(=O)Nc2cn(C)c(-c3ccccc3)n2)c(C)cc1Cl [Example 170, 4-chloro-2,5-dimethyl-N-(1-methyl-2-phenyl-1H-imidazol-4-yl)benzenesulfonamide]
7 | > 10 | Cc1cc(S(=O)(=O)Nc2nc(-c3ccccc3)n(C)n2)c(C)cc1Cl [Example 180, 4-chloro-2,5-dimethyl-N-(1-methyl-5-phenyl-1H-1,2,4-triazol-3-yl)benzenesulfonamide]
8 | 8 | Cc1cc(S(=O)(=O)Nc2cccc(-c3cc(C4CC4)[nH]n3)c2)c(C)cc1Cl [Example 64, 4-chloro-N-(3-(5-cyclopropyl-1H-pyrazol-3-yl)phenyl)-2,5-dimethylbenzenesulfonamide]
9 | > 100 | Cc1c(Cl)cccc1S(=O)(=O)Nc1csc(-c2ccccc2)n1 [Example 154, 3-chloro-2-methyl-N-(2-phenylthiazol-4-yl)benzenesulfonamide]
10 | 11 | Cc1cc(-c2cccc(NS(=O)(=O)c3cc(C)c(Cl)cc3C)c2)n[nH]1 [Example 66, 4-chloro-2,5-dimethyl-N-(3-(5-methyl-1H-pyrazol-3-yl)phenyl)benzenesulfonamide]
11 | 2 | Cc1cc(S(=O)(=O)Nc2csc(C(=O)N3CCC[C@H]3C)n2)c(C)cc1Cl [Example 174, (R)-4-chloro-2,5-dimethyl-N-(2-(2-methylpyrrolidine-1-carbonyl)thiazol-4-yl)benzenesulfonamide]
12 | 6 | Cc1cc(S(=O)(=O)Nc2csc(-c3cnn(C)c3)n2)c(C)cc1Cl [Example 183, 4-chloro-2,5-dimethyl-N-(2-(1-methyl-1H-pyrazol-4-yl)thiazol-4-yl)benzenesulfonamide]
13 | > 100 | Cc1cc(S(=O)(=O)Nc2cccc(C(=O)N3CCN(C)CC3)c2)c(C)cc1Cl [Example 52, 4-chloro-2,5-dimethyl-N-(3-(4-methylpiperazine-1-carbonyl)phenyl)benzenesulfonamide]
14 | > 100 | O=S(=O)(Nc1cccc(-c2nccs2)c1)c1ccc(Cl)cc1 [Example 59, 4-chloro-N-(3-(thiazol-2-yl)phenyl)benzenesulfonamide]
15 | > 10 | Cc1cc(S(=O)(=O)Nc2cnn(-c3ccccc3)n2)c(C)cc1Cl [Example 171, 4-chloro-2,5-dimethyl-N-(2-phenyl-2H-1,2,3-triazol-4-yl)benzenesulfonamide]
16 | > 100 | Cc1cc(S(=O)(=O)Nc2cccc(C(=O)N[C@H](C)c3ccccc3)c2)c(C)cc1Cl [Example 48, (R)-3-((4-chloro-2,5-dimethylphenyl)sulfonamido)-N-(1-phenylethyl)benzamide]

Row | AC50 [µM] | Compound
17 | > 100 | Cc1cc(NS(=O)(=O)c2cc(C)ccc2C)cc(C(=O)N2CCCC[C@H]2C)c1 [Example 42, (R)-2,5-dimethyl-N-(3-methyl-5-(2-methylpiperidine-1-carbonyl)phenyl)benzenesulfonamide]
18 | > 100 | Cc1cc(S(=O)(=O)Nc2csc(C(=O)N(CC(N)=O)C3CCCC3)n2)c(C)cc1Cl [Example 177, N-(2-amino-2-oxoethyl)-4-((4-chloro-2,5-dimethylphenyl)sulfonamido)-N-cyclopentylthiazole-2-carboxamide]
19 | > 100 | Cc1ccccc1S(=O)(=O)Nc1cccc(C(=O)N2CCOC[C@@H]2C)c1 [Example 23, (S)-2-methyl-N-(3-(3-methylmorpholine-4-carbonyl)phenyl)benzenesulfonamide]
20 | > 100 | Cc1cc(S(=O)(=O)Nc2csc(-n3cccn3)n2)c(C)cc1Cl [Example 178, N-(2-(1H-pyrazol-1-yl)thiazol-4-yl)-4-chloro-2,5-dimethylbenzenesulfonamide]
21 | 3 | Cc1cc(S(=O)(=O)Nc2csc(C(=O)N3CCC[C@@H]3C)n2)c(C)cc1Cl [Example 175, (S)-4-chloro-2,5-dimethyl-N-(2-(2-methylpyrrolidine-1-carbonyl)thiazol-4-yl)benzenesulfonamide]
22 | > 10 | Cc1cc(S(=O)(=O)Nc2csc(C(=O)N(C)CC(N)=O)n2)c(C)cc1Cl [Example 172, N-(2-amino-2-oxoethyl)-4-((4-chloro-2,5-dimethylphenyl)sulfonamido)-N-methylthiazole-2-carboxamide]
23 | > 100 | Cc1ccc(C)c(S(=O)(=O)Nc2cccc(C(=O)N(C)Cc3ccccc3)c2)c1 [Example 26, N-benzyl-3-((2,5-dimethylphenyl)sulfonamido)-N-methylbenzamide]
24 | 2 | Cc1cc(S(=O)(=O)Nc2csc(-c3ccccn3)n2)c(C)cc1Cl [Example 173, 4-chloro-2,5-dimethyl-N-(2-(pyridin-2-yl)thiazol-4-yl)benzenesulfonamide]
25 | > 100 | Cc1cc(S(=O)(=O)Nc2csc(-c3ccncc3)n2)c(C)cc1Cl [Example 176, 4-chloro-2,5-dimethyl-N-(2-(pyridin-4-yl)thiazol-4-yl)benzenesulfonamide]
26 | > 100 | Cc1ccc(C)c(S(=O)(=O)Nc2cccc(C(=O)N(C)CC3CC3)c2)c1 [Example 33, N-(cyclopropylmethyl)-3-((2,5-dimethylphenyl)sulfonamido)-N-methylbenzamide]
27 | > 100 | Cc1cc(S(=O)(=O)Nc2cccc(C(=O)N3CCC[C@H]3C(C)C)c2)c(C)cc1Cl [Example 67, (S)-4-chloro-N-(3-(2-isopropylpyrrolidine-1-carbonyl)phenyl)-2,5-dimethylbenzenesulfonamide]
28 | > 100 | Cc1ccc(C)c(S(=O)(=O)Nc2ccc(C(=O)N[C@@H](C)C3CC3)cc2)c1 [Example 39, (S)-N-(1-cyclopropylethyl)-4-((2,5-dimethylphenyl)sulfonamido)benzamide]
29 | > 100 | Cc1cc(S(=O)(=O)Nc2cccc(C(=O)N(C)CCO)c2)c(C)cc1Cl [Example 56, 3-((4-chloro-2,5-dimethylphenyl)sulfonamido)-N-(2-hydoxyethyl)-N-methylbenzamide]
30 | > 100 | Cc1cc(S(=O)(=O)Nc2cccc(C(=O)N(C)C(C)CO)c2)c(C)cc1Cl (single isomer, unassigned) [Example 15, 3-((4-chloro-2,5-dimethylphenyl)sulfonamido)-N-(1-hydroxypropan-2-yl)-N-methylbenzamide]
31 | > 100 | Cc1ccc(C)c(S(=O)(=O)Nc2ccc(C(=O)N3CCCC[C@H]3C)s2)c1 [Example 43, (R)-2,5-dimethyl-N-(5-(2-methylpiperidine-1-carbonyl)thiopheN-2-yl)benzenesulfonamide]

From US20260138961A1, “MODULATORS OF MITOCHONDRIAL DNA REPLICATION” (Pretzel Therapeutics, Inc., priority 2022, published 2026)
